Experimental data as given in patent US20250127775A1, “METHOD OF INDUCING DENDRITIC AND SYNAPTIC GENESIS IN NEURODE[…] DISEASES” (priority 2018, published 2025).

What was measured:
cortical rat neurons = experiment: Dendrite and synaptic connections of rat cortical neurons after exposure to tryptamines (FIG. 2); format: cell-based; conditions: 24 hours of exposure, FIG. 2 left to right
Description: The effect is dramatic and fast even with very small doses of the compounds which is a desirable profile for a therapeutic molecule. Looking at FIG. 2 from left to right, it is apparent that LSD>DMT>DOI>Vehicle with regards to dendritic and synaptic generation. Potential therapeutics that can be used in the present invention are tryptamines such as tryptamines and phenethylamines selected from the group, N, N-dimethyltryptamine, 5-methoxy-N, N-dimethyltryptamine, Ketamine, noribogaine, psilocin 3,4-methylenedioxymethamphetamine, mescaline, psilocin, and psilocybin. The dose concentration will vary by molecule type but can range for 0.00001 to 250 milligrams to kilograms (mg/kg) of body weight with 0.01 to 50 mg/kg being preferred.

rat neurons = experiment: SEM images of rat neurons after exposure to toxic amyloid peptide (FIG. 1); format: cell-based; conditions: exposure for 4 days to 250 micro molar toxic peptide
Description: At this resolution one can see copious dendritic structures, the round dark circles. The resolution is not high enough to visualize synaptic connections. The image labeled A is of rat neurons after exposure for 4days to 250 micro molar concentrations of toxic peptide. […] This model emulates what is seen in the human versions of AD disease.

Compound: CN(C)CCc1c[nH]c2ccccc12 [DMT, N, N-dimethyltryptamine]
- rank order with regards to dendritic and synaptic generation (cortical rat neurons): LSD>DMT>DOI>Vehicle

Compound: COc1cc(CC(C)N)c(OC)cc1I (stereo not drawn) [DOI]
- rank order with regards to dendritic and synaptic generation (cortical rat neurons): LSD>DMT>DOI>Vehicle

Compound: A 42 amyloid proteins: toxic amyloid protein used to compromise rat neurons, dendrites and synaptic connections
- degradation of the dendrites (and synaptic connections) (rat neurons): significant degradation of the dendrites
